One experiment addresses T1, nucleolin/2957NT (Homo sapiens, UniProt P19338).
T1 construct: without the N-terminal acidic stretches domain
Kind of experiment: EMSA, interference with nucleolin/nucleic acid ligand interaction. The format is binding. The note with it: ligand 2957NT, read-out: IC50, concentration of Compound A-1 required to dissociate half of the complexed nucleic acid ligand and nucleolin protein. How it is done: (§1) The following assays assessed effects of compounds on interactions between nucleolin and nucleic acid ligands capable of forming quadruplex (QP) and hairpin (HP) secondary structures. Nucleic acid ligands tested were a cMyc QP DNA having nucleotide sequence 5′-[…]-3′ (SEQ ID NO: 176) and a HP pre-rRNA region to which nucleolin binds, having the sequence 5′-[…]-3′ (SEQ ID NO: 177). In the assays, recombinant nucleolin (˜250 nM), which was fused to maltose binding protein and had the sequence under accession number NM_005381 without the N-terminal acidic stretches domain, was incubated with each of the two ^32P-labeled nucleic acid ligands (10 or 250 nM). Nucleolin and the nucleic acid ligand were incubated in the presence or absence of a test compound of Formula A-1, B-1, C-6 or C-7 in an incubation buffer (12.5 mM Tris, pH 7.6, 60 mM KCl, 1 mM MgCl2, 0.1 mM EDTA, 1 mM DTT, 5% glycerol, 0.1 mg/ml BSA) for 30 minutes at room temperature. Structures for A-1 and B-1 are shown above and structures for C-6 and C-7 are shown hereafter: [drawing 17] The resulting complexes were separated on a 6% DNA retardation gel using 0.5× TBE with 20 mM KCl as a running buffer (i.e., electrophoresis mobility shift assay (EMSA)).
(§2) The assay also was conducted using nucleic acid ligands derived from human ribosomal DNA. Sequences of these nucleic acids are shown in the preceding example. […] A “+” represents the weakest nucleolin affinity and least interference by compound A-1 and a “++++” represents the strongest nucleolin affinity and greatest interference by compound A-1.
(§3) The assay also was conducted in a filter-binding format. […] The protein-quadruplex mixtures were incubated for 30 min at ambient temperature and filtered through mixed cellulose ester membrane filters (Millipore) with gentle suction. The filters were washed twice with […] of binding buffer, dried and OptiPhase ‘SuperMix’ scintillation cocktail (Perkin Elmer) was added to the wells. Radioactivity was assayed with MicroBeta scintillation counter (Perkin Elmer). Binding curves were constructed and apparent Kd's and Bmax's for the complexes were calculated using the GraphPad Prizm software program (GraphPad Software). In the following table, the nucleic acid ligand is designated in the first column using the nomenclature described herein; the second column provides the nucleotide sequence of the nucleic acid ligand; the third column is the conformation of the ligand as determined by circular dichroism (M is mixed, P is parallel, A is antiparallel, C is complex, SS is single-stranded and ND is not determined); the fourth column is the dissociation constant determined by the filter binding assay of nucleolin protein and the nucleic acid ligand; the fifth column is a Bmax constant determined by the filter binding assay, which is the percent of active nucleic acid ligand in each assay; and the sixth column presents the concentration of Compound A-1 required to dissociate half of the complexed nucleic acid ligand and nucleolin protein, as determined by the EMSA assay described above.

Another experiment has as its target T2, nucleolin/6960NT (Homo sapiens, UniProt P19338).
T2 construct: without the N-terminal acidic stretches domain
The description is as above. It counts as binding. The note with it: ligand 6960NT, read-out: IC50, concentration of Compound A-1 required to dissociate half of the complexed nucleic acid ligand and nucleolin protein. How it is done: as §1, §2, §3

In the next experiment the target is T3, nucleolin/8762NT (Homo sapiens, UniProt P19338).
T3 construct: without the N-terminal acidic stretches domain
Described as above. It counts as binding. The settings on record: ligand 8762NT, read-out: IC50, concentration of Compound A-1 required to dissociate half of the complexed nucleic acid ligand and nucleolin protein. How it is done:
as §1, §2, §3

The next experiment concerns cells. Kind of experiment: Cell cycle progression (propidium iodide, flow cytometry). The format is cell-based. The settings on record: various concentrations, varying amounts of time. How it is done:
(§4) In assays for determining cell cycle progression effects, cells were harvested and single cell suspensions were prepared in buffer (e.g. PBS +2% FBS; PBS+0.1% BSA). Cells were washed twice and resuspend at 1-2×10^6 cells/ml. One ml cells was aliquotted in a 15 ml polypropylene, V-bottomed tube and 3 ml cold absolute ethanol was added. Cells were fixed for at least one hour at 4° C. Fixed cells were washed twice in PBS and one ml of propidium iodide staining solution (3.8 mM sodium citrate, 50 ug/ml propidium iodide in PBS) was added to each cell pellet and mixed well. Fifty microliters of an RNase A stock solution ([…] RNase A boiled for 5 minutes and aliquoted and stored frozen at −20° C.) was added and the resulting mixture was incubated for 3 hours at 4° C. Samples were stored at 4° C. until analyzed by flow cytometry.

For the next experiment, the system named is other kinases. Kind of experiment: Protein kinase inhibition assays (panel, summary). The format is biochemical. The note with it: 2.5 μM. How it is done:
Certain compounds were tested for activity in protein kinase inhibition assays. All substrates were dissolved and diluted to working stocks in de-ionized water, apart from histone H1 (10× working stock in 20 mM MOPS pH 7.0), PDKtide (10× working stock in 50 mM Tris pH 7.0) ATF2 (which is typically stored at a 20× working stock in 50 mM Tris pH 7.5, 150 mM NaCl, 0.1 mM EGTA, 0.03% Brij-35, 50% glycerol, 1 mM benzamidine, 0.2 mM PMSF and 0.1% R-mercaptoethanol), KKLNRTLSFAEPG (SEQ ID NO:203) and RRRLSFAEPG (SEQ ID NO:204) (50 mM HEPES pH 7.4) and GGEEEEYFELVKKKK (SEQ ID NO:205) (20 mM MOPS pH 7.0). All kinases were pre-diluted to a 10× working concentration prior to addition into the assay. The composition of the dilution buffer for each kinase is detailed below.
The following table denotes percent residual activity of each protein kinase when incubated with compound A-1 or B-1.

The subject of experiment [1] is DAOY medulloblastoma cells (p53−). As to the kind of experiment: Cell cycle progression (propidium iodide, flow cytometry). It counts as cell-based. How it is done: as §4
A general note: A flow cytometer gives signals particle by particle.

The test system of experiment [2] is HCT-116 colon carcinoma cells (p53+). The experiment is described as above. The settings on record: HCT-116 (p53+). The format is cell-based. How it is done:
as §4

In another experiment the test system is MiaPaCa pancreatic cells. Described as above. The format is cell-based. How it is done: as §4

T3 sequence (P19338 284-710 limits assumed): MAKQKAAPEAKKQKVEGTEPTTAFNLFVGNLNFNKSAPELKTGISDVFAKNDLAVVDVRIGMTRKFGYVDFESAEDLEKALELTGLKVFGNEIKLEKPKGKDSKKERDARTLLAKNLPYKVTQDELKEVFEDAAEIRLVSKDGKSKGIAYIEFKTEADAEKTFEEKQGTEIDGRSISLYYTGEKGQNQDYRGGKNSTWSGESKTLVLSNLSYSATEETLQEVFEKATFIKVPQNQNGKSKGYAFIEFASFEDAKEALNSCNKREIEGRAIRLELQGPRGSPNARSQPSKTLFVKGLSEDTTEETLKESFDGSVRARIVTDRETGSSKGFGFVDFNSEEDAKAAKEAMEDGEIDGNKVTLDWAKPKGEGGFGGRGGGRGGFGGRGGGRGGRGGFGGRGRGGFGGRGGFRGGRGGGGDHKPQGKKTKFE
T1 sequence (P19338 284-710 limits assumed): as above
T2 sequence (P19338 284-710 limits assumed): as above

With `CN1CCCC1CCNC(=O)c1cn2c3c(c(N4CCC(c5cnccn5)C4)c(F)cc3c1=O)Oc1cc3ccccc3cc1-2` (centres unmarked) [Compound A-1], the IC50 came out at 1 µM on nucleolin/2957NT, 3 µM at nucleolin/6960NT and 10 µM at nucleolin/8762NT. Further, in the experiment with cells, the “effect on the cell cycle” value is “little or no affect on the cell cycle”. In the experiment on other kinases, the “inhibition of other kinases” value is on record as 60-80%.
`CC(=O)N1CCN(c2ccc3c(=O)c(C(=O)NCCN4CCCC4)c4n(C)c5ccccc5n4c3n2)CC1` [Compound B-1]: the cell cycle arrest entry in experiment [1] is “arrested primarily in the S phase with some G2 arrest as well”; in experiment [2], “arrested in G1 and G2 phases of the cell cycle”; in the experiment on MiaPaCa pancreatic cells it was “arrested primarily in the S phase with some G2 arrest as well”.

Values taken from patent US20070117770A1, “Human ribosomal DNA (rDNA) and ribosomal RNA (rRNA) nucleic acids and uses thereof” (Cylene Pharmaceuticals, Inc., priority 2005, published 2007).
